Data as given in PMC9944328 (Nature Communications, 2023).

Test system: SSTR2 mutants
Test: SSTR2 internalization by ELISA, HEK293, 30 min 37 °C (mutants)
Type: cell-based, human
Conditions: I284ECL3A, K291A, N276A, F294A, Bystander BRET or confocal
Description: HEK293 cells were seeded into 96-well microplates at a density of 4 × 10^4 cells/well and cultured for 24 h at 37 °C with 5% CO2 and were transfected using the same procedure as the cAMP accumulation assay. The plates were washed with washing buffer (PBS) the day after transfection, and were fixed with 4% formalin at room temperature for 30 min. Cells were washed with washing buffer and blocked with PBS supplemented with 5% BSA for 1 h at room temperature. After that, cells were incubated with anti-Flag antibody (1:1000 diluted with PBS containing 5% BSA, Proteintech: 66008-4-Ig) for 1 h at room temperature. After 1 h incubation, cells were washed with washing buffer and incubating with HRP-conjugated secondary antibody for 2 h at room temperature. After incubating and washing, 50 μl of chromogenic solution was added to each well, and reacted at room temperature for 10 min, and then 0.5 M HCl were added to stop the reaction.
All data presented are means at least three independent experiments.

SMILES	Internalization of mutants
N#Cc1cccc(-c2ccc3ncc(-c4cc(F)cc(F)c4)c(N4CCC(N)CC4)c3c2)c1O [paltusotine]	slightly change in the internalization
C[C@@H](O)[C@@H]1NC(=O)[C@H](CCCCN)NC(=O)[C@@H](Cc2c[nH]c3ccccc23)NC(=O)[C@H](Cc2ccccc2)NC(=O)[C@@H](NC(=O)[C@H](N)Cc2ccccc2)CSSC[C@@H](C(=O)N[C@H](CO)[C@@H](C)O)NC1=O [octreotide]	diminished internalization
